Experiments:
[1] = tested on: chemically induced neuropathic pain; conditions: Kautio et al. 2008; Mitchell et al. 2006; cited from earlier work
[2] = tested on: oxaliplatin-induced neuropathy; conditions: chronic oxaliplatin, day 31; group O; FIG. 5
Method: (§1) The animals in the control group received an injection of 5% glucose by the same route, at the same frequency and the same volume.
(§2) These tablets were reduced to a fine powder, and placed in suspension in water containing 0.5% carboxymethylcellulose (Sigma Aldrich, France) in order to obtain a solution at 4 mg/ml. […] The animals in the control group simply received an administration of 0.5% carboxymethylcellulose by the same route, at the same volume and the same frequency.
This test takes place in an arena equipped with a camera in which two animals are placed in one another's presence for 10 minutes. The purpose of this test is to measure the interaction time between the animals. The two studied animals are always part of the same experimental condition group to prevent the behavior of one rat from influencing the other. The rats interact with one another by sniffing, grooming, chasing, etc. An increase in interactions indicates a non-anxious state of the rat, while a decrease and tendency toward prostration indicates an anxious state of the animal. At the beginning of the experiment, the animals are placed in opposite corners of the arena and the handler leaves the room. The arena is cleaned between two experiments to prevent the odors from the previous rats from disrupting the results.
A dose of 5 mg/kg was administered to the animals in groups D and O-D 30 minutes before the test.

[3] = tested on: oxaliplatin-induced neuropathy; conditions: chronic oxaliplatin, study D0 to D28; group O; FIG. 3
Method: as §1, §2
The Von Frey electronic apparatus (Chaplan et al., 1994) includes a portable sleeve made up of an elastic tip connected to a force sensor. The rats are placed in Plexiglas boxes, arranged on a raised grate. After a habituation period of the rats, the tip is applied perpendicularly to the center of the 5 plantar pads of each of rear paw. […] The intensity of the stimulus, the maximum applied pressure (expressed in grams) is recorded by the device upon withdrawal of the paw.
(§3) The trials were conducted over a period of 3 hours, on all 4 groups of rats. The time t0 corresponds to the moment of the injection.

[4] = Park et al. 2011; treatment using oxaliplatin and/or cisplatin; cited from earlier work
[5] = tested on: oxaliplatin-induced neuropathy; conditions: chronic oxaliplatin, study D0 to D28; group O; FIG. 4
Method: as §1, §2
The rats' tails are submerged in a cold water bath (10° C.). The immersion is maintained until the animal withdraws its tail. The latency of the withdrawal is clocked. Each measurement is done in triplicate.
as §3

Compound | relief in patients treated with oxaliplatin [1] | anxiety level (social interaction time) vs Sham group [2] | sensitivity to mechanical stimulation compared to Sham group [3] | affected patients in whom the neuropathy becomes persistent [4] | sensitivity to cold stimulation compared to Sham group [5]
NCC1(CC(=O)O)CCCCC1 [gabapentin] | have not provided any relief | – | – | – | –
CN(C)CCC=C1c2ccccc2CCc2ccccc21 [amitriptyline] | have not provided any relief | – | – | – | –
O=C1[O][Pt-2]2([NH2+]C3CCCC[C@H]3[NH2+]2)[O]C1=O (stereo in doubt) [oxaliplatin, cis-[(1R, 2R)-1,2-cyclohexanediamine-N, N′] [oxaloto (2)-O, O′] platinum] | – | significantly more anxious than the animals in the Sham group | increased sensitivity to mechanical stimulation | approximately 80% | increased sensitivity

From patent US20170128428A1 (priority 2014, published 2017)
